# Laboratory results as given in PubChem BioAssay (NCI).
#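 Exposure lasted 48 hours, with cells grown in 96-well plates and compounds tested at five concentrations. Definition used: TGI = concentration required for complete inhibition of growth.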
# Assays:
# Test in all cases: NCI tumour cell line growth inhibition, 48 h
# [1] = tested on: A498 renal
# [2] = tested on: HOP-92 NSCLC
# [3] = tested on: HS 578T breast
# [4] = tested on: MDA-MB-231 breast
# [5] = tested on: MDA-MB-435
# [6] = tested on: NCI-H226 lung
# [7] = tested on: NCI-H23 lung
# [8] = tested on: OVCAR-5 ovarian
# [9] = tested on: TK-10 renal
# [10] = tested on: UO-31 renal
Structure (SMILES),TGI [1] [µM],TGI [2] [µM],TGI [3] [µM],TGI [4] [µM],TGI [5] [µM],TGI [6] [µM],TGI [7] [µM],TGI [8] [µM],TGI [9] [µM],TGI [10] [µM]
CCC(c1ccc(OC)cc1)C1NC(=S)NC1=O (stereo not given),> 50,> 50,> 50,> 50,> 50,> 50,> 50,> 50,> 50,> 50
CCOC(=O)C1(C#N)C(C#N)(C#N)C1(C#N)C#N,> 100,> 100,> 100,> 100,> 100,> 100,> 100,> 100,> 100,> 100
NC(Cc1ccccc1)c1nn[nH]n1 (stereo not given),> 100,> 100,> 100,> 100,> 100,> 100,> 100,> 100,> 100,> 100
COC(=O)c1ccc(C)cc1C1CN=NC12Cc1cc(C)ccc1C2=O (stereo not given),55.5,84.7,41.3,64.9,6.12,88,66.5,> 100,71.7,> 85.1
OCC1OC(n2cnc3c(SCc4ccccc4)ncnc32)C(O)C1O (stereo not given),> 31.4,> 79.9,> 61.4,> 100,> 100,> 100,> 100,> 100,> 100,> 100
N#CCC1C2CC3C(C2=O)C13 (stereo not given),> 100,> 100,> 100,> 100,> 100,> 100,> 100,> 100,> 100,> 100
Nc1nc(Br)nc2ncn(C3CC(O)C(CO)O3)c12 (stereo not given),> 100,> 100,> 100,> 100,> 100,> 100,> 53,> 100,> 100,> 100
CCc1ccc(Nc2cc(=O)n(C)c(SCc3ccccc3)n2)cc1,29.7,> 100,> 100,> 100,> 100,> 100,> 100,> 100,> 100,> 100
COc1ccc(-n2c(Cn3nnc(-c4cccnc4)n3)nn(C3OC(COC(=O)c4ccccc4)C(OC(=O)c4ccccc4)C3OC(=O)c3ccccc3)c2=S)cc1 (stereo not given),> 100,> 100,> 100,> 100,> 100,36.1,> 100,> 100,> 100,> 100
O=C(c1ccccc1)C(Nc1ccc2ccccc2c1)c1ccccc1 (stereo not given),69.6,> 100,> 100,> 100,> 48,> 100,> 100,> 100,> 100,> 100
CCCCCCCCCCCCCCCC(=O)Nc1ccn(C2CCC(COP(=O)(O)OCC3OC(n4cc(F)c(=O)[nH]c4=O)CC3OC(C)=O)O2)c(=O)n1 (stereo not given),> 100,66.3,> 100,> 61.6,44.2,> 100,47.9,> 74.5,> 76.7,28.9
CC(C)CC(NC=O)C(=O)NC(Cc1ccccc1)NC(=O)CNC(=O)C(C)NC(=O)C(N)Cc1ccc(O)cc1 (stereo not given),> 100,> 100,> 100,> 100,> 100,> 100,> 100,> 100,> 100,> 100
S=C(Nc1ccc2c(c1)oc1ccccc12)c1cccs1,> 100,> 100,> 100,> 100,> 100,> 100,> 100,> 100,> 100,> 100
CCOC(=O)C1=CNC(C(=O)OCC)C1c1cccn1-c1ccccc1 (stereo not given),> 100,56.8,> 100,40.1,57.6,54.2,> 100,> 100,> 100,> 100
Cn1nc(-c2ccccc2)c2c(-c3ccccc3)c3cc(Cl)ccc3nc21,> 100,> 25,> 100,> 100,> 100,> 100,> 100,> 100,> 100,> 100
O=C(O)C1=CN(c2ccncc2)C(c2ccco2)=CC1c1ccccc1[N+](=O)[O-] (stereo not given),28.7,27.7,62.4,30.6,> 57.6,38.3,29.1,25.5,15.9,23.3
CCCNCC(O)CNc1ccc(NCC(O)CNCCC)c2c1C(=O)c1ccccc1C2=O (stereo not given),23.5,6.81,16.6,10.1,10.5,6.24,12.2,3.99,22.2,31.8
CC[C@@H]1CC[C@@H]2[C@H](CC[C@]3(C)[C@@H](OC(C)=O)CC[C@@H]23)[C@H]1C(=O)OC,> 100,37.3,> 100,46,41.9,38,59.6,59.5,> 100,> 100
CC(Cc1cccc2c1Nc1ccccc1S2)N(C)CCO (stereo not given),93.9,> 100,> 100,> 100,> 100,> 100,> 100,> 100,> 100,> 100
COc1ccc2c(c1)-c1nc(=O)n(CCCN(C)C)c3ccc([N+](=O)[O-])c(c13)N2,31,8.53,4.99,2.09,32.2,27.5,4.5,4.89,7.17,4.73
Nc1nc(N)c2ncn(-c3ccccc3)c2n1,> 100,> 100,> 100,> 100,> 100,> 100,> 100,> 100,> 100,> 100
C/C(=N\O)C1CC2C=C(C#N)C1N(Cc1ccccc1)C2 (stereo not given),> 100,> 100,> 100,> 100,> 100,> 100,> 100,> 100,> 100,> 100
O=C(NCCc1ccccc1)c1cc(/C=C/c2cc(O)ccc2O)ccc1O,13.6,4.35,> 40.4,12.9,25.8,27.8,17.7,25.3,7.16,2.86
O=C(/C=C/c1ccc(O)c(O)c1)NC(COC(=O)/C=C/c1ccc(O)c(O)c1)C(=O)O (stereo not given),> 100,> 100,> 100,> 100,> 100,> 100,> 100,> 100,> 100,> 100
C/C(=C\CNc1ncnc2c1ncn2CCC(=O)OC(C)(C)C)CO,> 100,> 100,> 100,> 100,> 100,> 100,> 100,> 100,> 100,> 100
CC(=O)O[C@H]1CC[C@@]2(C)C(=CC[C@@H]3[C@@H]2CC[C@](C)(c2nnc(C)o2)[C@H]3CC#N)C1,> 100,> 100,> 100,> 100,> 100,> 100,> 100,> 100,> 100,> 100
CCCCCCCC(CC(=O)NC(CO)C(=O)NC(CO)CC(C)C)OC(=O)CC(CCCCCCC)OC(=O)CC(CCCCCCC)OC1OC(C)C(O)C(OC2OC(C)C(O)C(O)C2O)C1O (stereo not given),35,24.8,22.7,26.6,19.5,38.7,30,26,30.8,30.5
CCCCOC(=O)NC(Nc1ccc(S(=O)(=O)Nc2ncccn2)cc1)(C(F)(F)F)C(F)(F)F,> 100,> 100,> 100,> 100,> 100,> 100,> 100,> 100,> 100,43.6
Cc1cc(C)c(S(=O)(=O)N(CCCN)OCCON(CCCN)S(=O)(=O)c2c(C)cc(C)cc2C)c(C)c1,53.9,> 21.6,30.3,> 23.4,> 23.6,18.1,7.11,4.99,42.8,58.7
C=C1CC(C)(COc2cc(=O)oc3ccccc23)OC1=O (stereo not given),8.74,3.54,30.8,23.1,17.7,29.1,11.4,22.3,5.16,24.8
